{
  "source": "patent US10369119B2",
  "about": "(priority 2015, dated 2019)",
  "key": {"[1]": {"biological_target": "T1, caspase-6 (Mus musculus, UniProt O08738)", "T1 construct": "Caspases were induced in RAW264.7 by treating cells with 2 μg/ml of PE for 4 hours; endogenous in cells; host or cells: RAW264.7 (lysate after PE treatment)", "T1 sequence (O08738 6-162 limits assumed)": "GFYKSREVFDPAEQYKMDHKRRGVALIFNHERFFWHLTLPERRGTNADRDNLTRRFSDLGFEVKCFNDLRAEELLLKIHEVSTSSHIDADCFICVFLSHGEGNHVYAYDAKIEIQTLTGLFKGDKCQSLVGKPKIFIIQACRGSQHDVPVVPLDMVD", "T1 sequence (O08738 176-276 limits assumed)": "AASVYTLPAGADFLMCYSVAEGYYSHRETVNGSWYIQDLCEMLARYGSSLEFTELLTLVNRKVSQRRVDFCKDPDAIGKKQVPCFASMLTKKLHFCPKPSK", "experiment": "biochemical", "format": "biochemical"}, "[2]": {"biological_target": "T2, caspase-1 (Homo sapiens, UniProt P29466)", "T2 construct": "purchased BioVision", "T2 sequence (P29466 120-297 limits assumed)": "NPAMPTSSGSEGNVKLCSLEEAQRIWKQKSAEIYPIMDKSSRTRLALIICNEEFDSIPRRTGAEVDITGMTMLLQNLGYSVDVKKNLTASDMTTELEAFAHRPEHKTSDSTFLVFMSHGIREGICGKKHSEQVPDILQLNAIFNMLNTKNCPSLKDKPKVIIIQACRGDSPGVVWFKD", "T2 sequence (P29466 317-404 limits assumed)": "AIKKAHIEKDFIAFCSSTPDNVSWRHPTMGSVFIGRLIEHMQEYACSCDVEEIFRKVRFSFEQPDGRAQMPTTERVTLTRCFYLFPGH", "format": "biochemical"}, "[3]": {"biological_target": "T3, caspase-3 (Mus musculus, UniProt P70677)", "T3 construct": "Caspases were induced in RAW264.7 by treating cells with 2 μg/ml of PE for 4 hours; endogenous in cells; host or cells: RAW264.7 (lysate after PE treatment)", "T3 sequence (P70677 29-175 limits assumed)": "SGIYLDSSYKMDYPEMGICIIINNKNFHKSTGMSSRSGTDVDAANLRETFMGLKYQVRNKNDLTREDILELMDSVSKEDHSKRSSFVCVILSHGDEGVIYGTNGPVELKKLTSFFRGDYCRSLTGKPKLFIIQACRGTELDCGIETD", "T3 sequence (P70677 176-277 limits assumed)": "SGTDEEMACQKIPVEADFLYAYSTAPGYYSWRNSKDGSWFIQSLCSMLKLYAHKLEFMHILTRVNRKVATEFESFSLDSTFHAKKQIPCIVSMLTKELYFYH", "experiment": "biochemical", "format": "biochemical"}, "[4]": {"biological_target": "T4, cathepsin-B (Mus musculus, UniProt P10605)", "T4 construct": "Cathepsin B and caspase-1 activities in total cell lysates were determined; endogenous in cells; host or cells: RAW264.7", "T4 sequence (P10605 80-333)": "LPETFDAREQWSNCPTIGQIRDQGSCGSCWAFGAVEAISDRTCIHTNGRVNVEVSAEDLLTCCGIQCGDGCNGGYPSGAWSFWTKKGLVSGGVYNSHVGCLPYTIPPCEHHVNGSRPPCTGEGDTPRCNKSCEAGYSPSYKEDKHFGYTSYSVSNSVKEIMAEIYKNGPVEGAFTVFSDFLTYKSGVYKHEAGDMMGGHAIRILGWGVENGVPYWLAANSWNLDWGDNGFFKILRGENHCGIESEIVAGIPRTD", "format": "cell-based"}, "[5]": {"biological_target": "anthrax LF toxin (Bacillus anthracis, UniProt P15917)", "sequence (P15917 34-809 limits assumed)": "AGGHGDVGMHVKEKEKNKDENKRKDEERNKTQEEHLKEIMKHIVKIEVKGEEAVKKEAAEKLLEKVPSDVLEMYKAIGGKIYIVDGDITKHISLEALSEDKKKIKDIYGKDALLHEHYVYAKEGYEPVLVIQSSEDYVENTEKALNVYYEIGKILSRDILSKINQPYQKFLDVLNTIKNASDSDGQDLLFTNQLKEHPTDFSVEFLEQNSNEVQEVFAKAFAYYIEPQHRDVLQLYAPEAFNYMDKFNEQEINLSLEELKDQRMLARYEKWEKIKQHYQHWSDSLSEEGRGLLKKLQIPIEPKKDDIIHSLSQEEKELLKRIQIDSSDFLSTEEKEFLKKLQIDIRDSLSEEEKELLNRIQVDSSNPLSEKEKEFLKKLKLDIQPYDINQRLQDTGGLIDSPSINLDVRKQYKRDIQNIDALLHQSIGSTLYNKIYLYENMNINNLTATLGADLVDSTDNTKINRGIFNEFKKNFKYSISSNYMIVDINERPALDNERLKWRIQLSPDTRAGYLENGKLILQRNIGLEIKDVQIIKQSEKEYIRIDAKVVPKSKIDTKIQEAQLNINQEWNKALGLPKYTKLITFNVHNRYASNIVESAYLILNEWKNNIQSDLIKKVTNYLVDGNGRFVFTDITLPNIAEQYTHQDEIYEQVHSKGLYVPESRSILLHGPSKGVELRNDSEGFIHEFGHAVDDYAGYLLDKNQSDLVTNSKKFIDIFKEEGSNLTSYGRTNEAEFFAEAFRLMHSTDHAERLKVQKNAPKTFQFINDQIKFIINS", "format": "cell-based"}, "[6]": {"system": "Diphtheria toxin-mediated cytotoxicity in C32 cells", "experiment": "cells", "conditions": "Homo sapiens, C32, read-out: EC50 for reduction of diphtheria toxin-mediated cytotoxicity"}, "[7]": {"biological_target": "T5, caspase-1 (Mus musculus, UniProt P29452)", "T5 construct": "Cathepsin B and caspase-1 activities in total cell lysates were determined; endogenous in cells; host or cells: RAW264.7", "T5 sequence (P29452 119-296 limits assumed)": "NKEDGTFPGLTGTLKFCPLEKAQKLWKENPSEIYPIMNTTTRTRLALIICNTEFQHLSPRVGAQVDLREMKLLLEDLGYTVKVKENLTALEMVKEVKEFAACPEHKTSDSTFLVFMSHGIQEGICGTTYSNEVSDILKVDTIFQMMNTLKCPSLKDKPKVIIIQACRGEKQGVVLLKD", "T5 sequence (P29452 315-402 limits assumed)": "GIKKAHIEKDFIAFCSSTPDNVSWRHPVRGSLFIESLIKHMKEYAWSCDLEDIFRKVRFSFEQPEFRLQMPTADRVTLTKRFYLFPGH", "format": "cell-based"}, "[8]": {"system": "caspase-3/7", "format": "biochemical, mouse"}, "[9]": {"biological_target": "T6, caspase-7 (Homo sapiens, UniProt P55210)", "T6 construct": "purchased BioVision", "T6 sequence (P55210 24-198 limits assumed)": "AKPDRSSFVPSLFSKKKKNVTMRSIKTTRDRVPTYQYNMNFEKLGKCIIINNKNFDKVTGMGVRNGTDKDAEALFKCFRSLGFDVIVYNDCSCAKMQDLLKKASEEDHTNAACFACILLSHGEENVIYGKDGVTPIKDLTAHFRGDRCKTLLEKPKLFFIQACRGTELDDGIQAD", "T6 sequence (P55210 207-303 limits assumed)": "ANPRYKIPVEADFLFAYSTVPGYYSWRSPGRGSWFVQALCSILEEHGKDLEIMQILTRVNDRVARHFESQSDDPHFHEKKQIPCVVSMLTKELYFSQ", "format": "biochemical"}, "[10]": {"system": "Pseudomonas aeruginosa exotoxin A (PE)-mediated cytotoxicity in RAW264.7 cells", "experiment": "cells", "conditions": "Mus musculus, RAW264.7, read-out: EC50 for reduction of Pseudomonas toxin-mediated cytotoxicity"}, "[11]": {"biological_target": "BoNT/A light chain (Clostridium botulinum, UniProt P0DPI0)", "sequence (P0DPI0 2-448 limits assumed)": "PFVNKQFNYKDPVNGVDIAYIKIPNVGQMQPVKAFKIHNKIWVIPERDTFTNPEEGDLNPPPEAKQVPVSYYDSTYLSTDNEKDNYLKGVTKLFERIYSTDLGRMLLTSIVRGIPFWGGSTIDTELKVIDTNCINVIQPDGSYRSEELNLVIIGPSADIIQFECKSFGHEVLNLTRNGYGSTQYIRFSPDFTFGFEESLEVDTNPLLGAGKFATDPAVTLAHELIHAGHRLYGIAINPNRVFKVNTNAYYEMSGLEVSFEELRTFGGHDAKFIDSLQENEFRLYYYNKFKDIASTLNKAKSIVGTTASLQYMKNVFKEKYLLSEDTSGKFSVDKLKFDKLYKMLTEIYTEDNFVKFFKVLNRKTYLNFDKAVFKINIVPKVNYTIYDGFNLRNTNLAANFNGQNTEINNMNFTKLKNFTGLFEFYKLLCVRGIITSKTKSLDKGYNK", "format": "biochemical"}, "[12]": {"system": "cholera toxin-mediated cytotoxicity in RAW264.7 cells", "experiment": "cells", "conditions": "Mus musculus, RAW264.7, read-out: EC50 for reduction of cholera toxin-mediated cytotoxicity"}, "[13]": {"biological_target": "T7, caspase-3 (Homo sapiens, UniProt P42574)", "T7 construct": "purchased BioVision", "T7 sequence (P42574 29-175 limits assumed)": "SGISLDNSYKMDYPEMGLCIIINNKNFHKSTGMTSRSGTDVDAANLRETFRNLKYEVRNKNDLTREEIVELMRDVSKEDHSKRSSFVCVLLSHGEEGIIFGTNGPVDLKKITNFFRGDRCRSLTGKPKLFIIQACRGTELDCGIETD", "T7 sequence (P42574 176-277 limits assumed)": "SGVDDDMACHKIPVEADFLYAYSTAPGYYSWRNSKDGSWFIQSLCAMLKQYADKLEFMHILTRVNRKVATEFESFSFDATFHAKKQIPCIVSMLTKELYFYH", "format": "biochemical"}, "[14]": {"system": "botulinum neurotoxin serotype A complex (BoNT/A)", "parameters": "species or system Swiss Webster (CFW) mice", "conditions": "mouse, in vivo"}, "[15]": {"biological_target": "T8, caspase-9 (Homo sapiens, UniProt P55211)", "T8 construct": "purchased BioVision", "T8 sequence (P55211 1-315 limits assumed)": "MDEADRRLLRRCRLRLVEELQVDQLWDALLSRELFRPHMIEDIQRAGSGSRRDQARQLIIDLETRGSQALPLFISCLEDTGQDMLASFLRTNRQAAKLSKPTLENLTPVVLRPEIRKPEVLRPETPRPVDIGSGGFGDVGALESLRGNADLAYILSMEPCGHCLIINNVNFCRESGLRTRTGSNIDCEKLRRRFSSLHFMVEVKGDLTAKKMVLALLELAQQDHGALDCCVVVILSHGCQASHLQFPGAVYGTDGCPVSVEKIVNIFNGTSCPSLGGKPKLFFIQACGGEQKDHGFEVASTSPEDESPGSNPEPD", "T8 sequence (P55211 331-416 limits assumed)": "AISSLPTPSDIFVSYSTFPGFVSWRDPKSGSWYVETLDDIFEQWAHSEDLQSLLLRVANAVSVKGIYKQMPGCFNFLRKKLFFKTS", "format": "biochemical"}, "[16]": {"biological_target": "T9, caspase-6 (Homo sapiens, UniProt P55212)", "T9 construct": "purchased BioVision", "T9 sequence (P55212 24-179 limits assumed)": "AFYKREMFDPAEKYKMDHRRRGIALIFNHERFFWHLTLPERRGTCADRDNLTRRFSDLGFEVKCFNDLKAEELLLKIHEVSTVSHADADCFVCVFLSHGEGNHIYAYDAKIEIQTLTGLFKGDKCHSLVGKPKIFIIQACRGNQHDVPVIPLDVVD", "T9 sequence (P55212 194-293 limits assumed)": "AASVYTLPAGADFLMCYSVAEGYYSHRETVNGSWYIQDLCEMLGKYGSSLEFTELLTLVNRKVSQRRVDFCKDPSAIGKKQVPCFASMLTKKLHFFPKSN", "format": "biochemical"}, "[17]": {"system": "Senegal ZIKV", "experiment": "Zika virus high content imaging infection assay, Senegal strain DAK AR D 41525 in Vero E6 cells", "format": "cell-based", "conditions": "Vero C1008, 2 hours pretreatment, MOI 0.5, 48 hours, read-out: EC50 for inhibition of abundance of Senegal ZIKV in Vero E6 cells"}, "[18]": {"biological_target": "T10, furin (Mus musculus, UniProt P23188)", "T10 construct": "endogenous in cells; host or cells: RAW264.7", "T10 sequence (P23188 108-793)": "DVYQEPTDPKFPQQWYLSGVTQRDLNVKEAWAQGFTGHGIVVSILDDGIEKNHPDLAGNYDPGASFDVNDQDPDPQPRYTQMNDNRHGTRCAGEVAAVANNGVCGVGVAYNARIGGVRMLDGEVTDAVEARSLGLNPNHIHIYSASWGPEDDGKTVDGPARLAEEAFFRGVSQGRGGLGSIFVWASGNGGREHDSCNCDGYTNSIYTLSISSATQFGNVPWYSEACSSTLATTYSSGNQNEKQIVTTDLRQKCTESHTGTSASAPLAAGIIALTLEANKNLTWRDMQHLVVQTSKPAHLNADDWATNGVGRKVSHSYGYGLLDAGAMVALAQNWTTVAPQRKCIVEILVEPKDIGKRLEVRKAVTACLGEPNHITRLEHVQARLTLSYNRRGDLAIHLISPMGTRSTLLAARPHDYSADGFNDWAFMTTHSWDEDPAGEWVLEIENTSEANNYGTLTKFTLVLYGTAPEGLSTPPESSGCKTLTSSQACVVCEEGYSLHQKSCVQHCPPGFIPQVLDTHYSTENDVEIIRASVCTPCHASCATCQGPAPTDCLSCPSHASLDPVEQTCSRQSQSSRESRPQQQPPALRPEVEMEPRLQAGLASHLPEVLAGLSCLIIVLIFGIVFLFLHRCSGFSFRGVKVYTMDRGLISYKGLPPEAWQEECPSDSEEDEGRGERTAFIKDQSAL", "format": "cell-based"}, "[19]": {"system": "other caspases", "format": "biochemical, human"}, "[20]": {"system": "LF-PA-mediated cell killing in RAW264.7 cells", "format": "cell-based, mouse"}, "[21]": {"system": "PE-sensitive HapMap cells (human B-lymphocytes)", "format": "cell-based"}, "[22]": {"system": "Puerto Rico ZIKV", "experiment": "Zika virus high content imaging infection assay, Puerto Rico strain PRVABC59 in Vero E6 cells", "format": "cell-based", "conditions": "Vero C1008, 2 hours pretreatment, MOI 0.5, 48 hours, read-out: EC50 for inhibition of abundance of Puerto Rico ZIKV in Vero E6 cells"}, "[23]": {"system": "Senegal ZIKV", "experiment": "Zika virus high content imaging infection assay, Senegal strain DAK AR D 41525 in human astrocytes", "format": "cell-based", "conditions": "Astrocyte, 2 hours pretreatment, MOI 15, 48 hours, read-out: EC50 for inhibition of abundance of Senegal ZIKV in human astrocytes"}, "[24]": {"system": "Pseudomonas aeruginosa exotoxin A (PE)-mediated cytotoxicity in RAW264.7 cells"}, "[25]": {"system": "cholera toxin-mediated cytotoxicity in RAW264.7 cells"}, "[26]": {"system": "Diphtheria toxin-mediated cytotoxicity in C32 cells"}},
  "note": "Entries after “also recorded” stand apart in the source; their conditions may differ.",
  "data": [
    {"smiles": "Oc1c(Cl)cc(Cl)cc1Sc1cc(Cl)cc(Cl)c1O", "note": "[Bithionol]", "values": [
      {"measurement": "IC50", "setting": "[1]", "result": 13, "unit": "µM"},
      {"measurement": "CCL FRET screen hit: reduction of proteolysis of caspase-6 substrate", "setting": "[1]; 33 μM", "result": "capable of prominently reducing the proteolysis of all three caspase substrates"},
      {"measurement": "Inhibition of purified recombinant human caspase-1 activity", "setting": "[2]", "result": "inhibited activities"},
      {"measurement": "IC50", "setting": "[3]", "result": 21, "unit": "µM"},
      {"measurement": "CCL FRET screen hit: reduction of proteolysis of caspase-3 substrate", "setting": "[3]; 33 μM", "result": "capable of prominently reducing the proteolysis of all three caspase substrates"},
      {"measurement": "Inhibition of proteolytic activity of cellular cathepsin-B", "setting": "[4]", "result": "does not inhibit"},
      {"measurement": "Inhibition of proteolytic activity of cellular LF (MAPKK2 proteolysis)", "setting": "[5]", "result": "does not block proteolysis; also recorded: does not inhibit"},
      {"measurement": "EC50", "setting": "[6]", "result": 10, "unit": "µM"},
      {"measurement": "Caspase-1 induction upon LF-PA treatment", "setting": "[7]", "result": "caspase-1 induction was not detected"},
      {"measurement": "CCL FRET screen hit: reduction of proteolysis of caspase-3/7 substrate", "setting": "[8]; 33 μM", "result": "capable of prominently reducing the proteolysis of all three caspase substrates"},
      {"measurement": "IC50", "setting": "[8]; read-out: IC50 for inhibition of proteolytic cleavage of caspase-3/7 substrate", "result": 11, "unit": "µM"},
      {"measurement": "Inhibition of purified recombinant human caspase-7 activity", "setting": "[9]", "result": "inhibited activities"},
      {"measurement": "EC50", "setting": "[10]", "result": 10, "unit": "µM"},
      {"measurement": "Effect on proteolysis rate of fluorescent SNAP-25 substrate by BoNT/A", "setting": "[11]", "result": "did not affect the proteolysis rate"},
      {"measurement": "EC50", "setting": "[12]", "result": 10, "unit": "µM"},
      {"measurement": "Inhibition of purified recombinant human caspase-3 activity", "setting": "[13]", "result": "inhibited activities"},
      {"measurement": "Survival of mice challenged with lethal oral dose of BoNT/A complex", "setting": "[14]", "result": "all of the mice"},
      {"measurement": "Toxin-associated symptoms (wasp waist, paralysis) in BoNT/A challenged mice", "setting": "[14]", "result": "without displaying toxin-associated symptoms"},
      {"measurement": "Inhibition of purified recombinant human caspase-9 activity", "setting": "[15]", "result": "inhibited activities"},
      {"measurement": "Inhibition of purified recombinant human caspase-6 activity", "setting": "[16]", "result": "inhibited activities"},
      {"measurement": "EC50", "setting": "[17]", "result": 5.5, "unit": "µM"},
      {"measurement": "Inhibition of proteolytic activity of cellular furin", "setting": "[18]", "result": "does not inhibit"},
      {"measurement": "Inhibition of other purified recombinant human caspases", "setting": "[19]", "result": "no inhibitory effects"},
      {"measurement": "Protection against LF-PA-mediated cell killing", "setting": "[20]", "result": "substantial protection"},
      {"measurement": "Reduction of cellular sensitivity to PE in PE-sensitive HapMap cells", "setting": "[21]", "result": "protected three cell lines"},
      {"measurement": "EC50", "setting": "[22]", "result": 6.7, "unit": "µM"},
      {"measurement": "EC50", "setting": "[23]", "result": 6.3, "unit": "µM"}
    ]},
    {"smiles": "Oc1cccc(O)c1O", "note": "[Pyrogallol]", "values": [
      {"measurement": "CCL cellular screen hit: reduction of PE cytotoxicity", "setting": "[24]", "result": "capable of reducing the cytotoxicities of all three toxins"},
      {"measurement": "CCL cellular screen hit: reduction of cholera toxin cytotoxicity", "setting": "[25]", "result": "capable of reducing the cytotoxicities of all three toxins"},
      {"measurement": "CCL cellular screen hit: reduction of diphtheria toxin cytotoxicity", "setting": "[26]", "result": "capable of reducing the cytotoxicities of all three toxins"}
    ]}
  ]
}
